Source: PubChem BioAssay AID179 (DTP/NCI, 2004)
“And” between values parts separate entries of the source, which are not always exact repeats. Equal entries are not always repeated. The source made the active and inactive calls.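 How the source made its calls: active means compounds giving half or more protection of infected cells from virus-caused growth loss, again on retest; inactive means the rest.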

Tested on: CEM cells HIV-1 protection, formazan growth assay
Experiment: NCI AIDS Antiviral Assay
Details: for IC50: measured here: growth of uninfected CEM cells
Method in brief: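 CEM (human) cells, HIV-1 infected vs uninfected, 5-point dosing, formazan growth read-out. Retest threshold 50% protection.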

In the case of `C[C@]12Cc3cn[nH]c3C(=O)C1CC[C@@H]1C2CC[C@@]2(C)C1CC[C@@H]2O` (some centres undefined), the EC50 is reported as 20 µM and the IC50 is reported as 21.9 µM.
In the case of `CCC(CO)Nc1nc2c(c(=O)n(C)c(=O)n2C)n1CCO` (centres undefined), the outcome is reported as “inactive”.
Compound `CSc1nc(=O)c(C#N)c(-c2ccccc2)n1C1OC(COC(C)=O)C(OC(C)=O)C(OC(C)=O)C1OC(C)=O` (centres undefined) has an EC50 of over 200 µM and an IC50 of 93.3 µM.
`CCCNc1c(Cl)cc(Cl)c2[nH]c3ccccc3c(=O)c12` gave an EC50 of over 200 µM and an IC50 of 23.4 µM.
`CCC[CH2][Sn]([CH2]CCC)([CH2]CCC)/[C](=C/[Si](C)(C)c1ccccc1)c1ccc2c(c1)OCO2` showed an EC50 of over 3.47 µM and an IC50 of over 3.47 µM.
With `Cc1cc(Cl)ccc1C1OC(=O)c2c1ccc1ccccc21` (centres undefined) the EC50 was over 23.4 µM and the IC50 was over 23.4 µM.
With `N#Cc1c(N=C2CCCCC2)c(C(=O)Nc2ccccc2)n2c1CCCC2` the EC50 was over 50.1 µM and the IC50 was over 50.1 µM.
For `CC[N+](C)(C)Cc1ccccc1Br`, the EC50 was over 200 µM and the IC50 was 182 µM.
In the case of `NCCN.O=C([O-])[O-].O=C([O-])[O-].[Co+3].[K+]`, the EC50 is reported as over 646 µM and the IC50 is reported as 295 µM and 339 µM.
`CC1(C)S[C@H](CN)N[C@H]1C(=O)OC(c1ccccc1)c1ccccc1` was tested, and the EC50 was over 200 µM and the IC50 was 60.3 µM.
`COc1ccc(NC(=O)C2=CC(=O)c3ccc(O)cc3C2=O)c(OC)c1` gave an EC50 of 75.9 µM and an IC50 of 708 µM.
With `COC(=O)[C@@H]1COC(C(C)(C)C)N1C(=O)C(c1ccccc1)c1ccccc1` (some centres undefined) the outcome was “inactive”.
`C[C@]12CCC(=O)C=C1CC[C@@H]1C2CC[C@]2(C)c3nn(-c4ccccc4)nc3CC12` (some centres undefined) was tested, and the outcome was “inactive”.
`CNC(=O)OC(C)CN1c2ccccc2Sc2ccc(Cl)cc21` (centres undefined) gave an EC50 of over 200 µM and an IC50 of 26.9 µM.
With `COc1cccc(NC(=S)/C(=C(/[O-])c2ccc([N+](=O)[O-])cc2)[n+]2ccccc2)c1` the EC50 was over 200 µM and the IC50 was over 200 µM.
Work on `Cc1ccc(S(=O)(=O)OI(C#CC(C)(C)C)c2ccccc2)cc1` yielded an EC50 of over 200 µM and an IC50 of 1.05 µM.
In the case of `Cn1ccnc1Cn1cc(-c2cccc(-c3cn[nH]c3)c2)cn1`, the outcome is reported as “inactive”.
`Sc1ccccc1N=Cc1cccs1` showed an EC50 of over 200 µM and an IC50 of 93.3 µM.
`O=C1/C(=C(/Br)I)c2ccccc2-c2ccccc21` showed an EC50 of over 200 µM and an IC50 of 8.32 µM.
In the case of `CCOC(=O)C(C#N)(Cc1ccc2ccccc2n1)Cc1ccc2ccccc2n1`, the EC50 is reported as over 200 µM and the IC50 is reported as over 200 µM.
With `CCCCCn1cnc2c1S(=O)(=O)N(C)C(NC(=O)c1ccccc1)=N2` the EC50 was over 200 µM and the IC50 was over 200 µM.
`Cn1c(=O)c2nc3c4ccccc4c(=O)n(C)c3nc2n(C)c1=O` was tested, and the outcome was “inactive”.
`COc1ccc2c(O)c(Oc3ccccc3)c(=O)oc2c1` was tested, and the EC50 was over 200 µM and the IC50 was 145 µM.
`Nc1ncnc2c1ncn2C1C=CC(CP(=O)(O)O)C1` (centres undefined) gave an EC50 of over 200 µM and an IC50 of over 200 µM.
`COc1ccccc1CN1CC(C)N(N=Cc2c3c(O)c4c(O)c(C)c5c(c4c2O)C(=O)C(C)(O/C=C/C(OC)C(C)C(OC(C)=O)C(C)C(O)C(C)C(O)C(C)/C=C/C=C(\C)C(=O)N3)O5)C(C)C1` (centres undefined) gave an EC50 of over 200 µM and an IC50 of 7.76 µM.
`CN(C(=O)C12C3C4C1C1C4(C#N)C3C12C(=O)O)C(C)(C)C` (centres undefined) showed an EC50 of over 158 µM and an IC50 of over 158 µM.
`CCNC(CCCC(NCC)P(=O)(O)O)P(=O)(O)O` (centres undefined) was tested, and the outcome was “inactive”.
Compound `O=C1OC2CCCC[C@@H]2C2C[C@]34CCCCC3[C@@H](C(=O)O4)C12` (some centres undefined) has an EC50 of over 23.4 µM and an IC50 of over 23.4 µM.
For `NCCCCCCNS(=O)(=O)c1cccc2c(Cl)cccc12`, the EC50 was over 200 µM and the IC50 was 13.5 µM.
`CCOC(=O)COC(=O)c1cc(C(=CCC[C@H]2CC[C@@]3(C)[C@@H](CC[C@@H]4[C@@H]3CC[C@]3(C)[C@@H](C(C)CCCC(C)C)CC[C@@H]43)C2)c2cc(Cl)c(OCC(=O)OCC)c(C(=O)OCC(=O)OCC)c2)cc(Cl)c1OCC(=O)OCC` (some centres undefined) was tested, and the EC50 was over 200 µM and the IC50 was over 200 µM.
`COc1cc(O)c(C(=O)CC(C)=O)c(OC)c1` gave an EC50 of over 398 µM and an IC50 of 174 µM.
In the case of `CC(NC(=O)C(=O)N/N=C1\CC(c2ccccc2)Oc2ccccc21)c1ccccc1` (centres undefined), the outcome is reported as “inactive”.
With `Cc1cccc(-n2nc3c(=O)n(C)c(=O)n(C)c3nc2=O)c1` the EC50 was over 200 µM and the IC50 was over 200 µM.
`OCCN1c2ccccc2Sc2ccccc21` was tested, and the EC50 was over 200 µM and the IC50 was 105 µM.
In the case of `C#CCNC(CCCN=C(N)N)C(=O)O` (centres undefined), the EC50 is reported as over 200 µM and the IC50 is reported as over 200 µM.
`CCN(CC)CC(=O)Nc1ccc(Cl)cc1Cc1ccccc1` showed an EC50 of over 200 µM and an IC50 of 91.2 µM.
With `CCOC(=O)C12C3C(=O)N(CC)C(=O)C3ON1OC1C(=O)N(CC)C(=O)C12` (centres undefined) the EC50 was over 661 µM and the IC50 was 81.3 µM.
For `CC1C(O)O[C@@H]2O[C@@]3(C)CC[C@H]4[C@H](C)CC[C@@H]1[C@@]24O3` (some centres undefined), the EC50 was over 200 µM and the IC50 was over 200 µM.
With `CCC(=O)OC1CCn2c1nc1c2C(=O)C(C)=C(N2CC2)C1=O` (centres undefined) the EC50 was over 200 µM and the IC50 was 0.575 µM.
`CC1(CO)OC(n2cnc3cncnc32)CC1O` (centres undefined) gave an EC50 of 18.2 µM and an IC50 of over 200 µM.
`O=C(O)CCC(=O)Oc1ccc(O)c2c1CCCC2=O` showed an EC50 of over 339 µM and an IC50 of over 339 µM.
For `CCC/C(Cl)=N\OC(=O)Nc1cccc(C(F)(F)F)c1`, the EC50 was over 200 µM and the IC50 was 6.76 µM.
Compound `O=C(Nc1ccc([N+](=O)[O-])cc1[N+](=O)[O-])C(=O)C(C(=O)c1ccc(Cl)c(Cl)c1)C1OC(=O)c2ccccc21` (centres undefined) has an EC50 of over 89.1 µM and an IC50 of 28.8 µM.
